What was measured:
AMD1 [1] = target: T1, AMD1 (Homo sapiens, UniProt P17707); settings: literature statement; cited from earlier work
T1 construct: Full-length genes encoding three probe 1- and one probe 2-targeted proteins were amplified from a cDNA library; expressed in transfected cells; host or cells: HEK293T
T1 sequence (P17707 68-334 limits assumed): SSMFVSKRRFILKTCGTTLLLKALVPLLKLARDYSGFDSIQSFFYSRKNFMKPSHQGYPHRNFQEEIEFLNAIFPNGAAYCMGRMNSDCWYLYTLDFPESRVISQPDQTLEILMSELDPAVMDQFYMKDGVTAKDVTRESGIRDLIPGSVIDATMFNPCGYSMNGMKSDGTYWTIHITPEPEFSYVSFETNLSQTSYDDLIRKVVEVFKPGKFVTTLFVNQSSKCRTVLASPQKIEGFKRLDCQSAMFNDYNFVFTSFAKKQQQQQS
T1 sequence (P17707 1-67 limits assumed): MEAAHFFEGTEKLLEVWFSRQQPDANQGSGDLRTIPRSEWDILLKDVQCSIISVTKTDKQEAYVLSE

AMD1 [2] = target: T1, AMD1; test: expression and probe 1 labelling of endogenous AMD1 after DFMO; format: cell-based; settings: HEK293T, DFMO 5 mM 48 h, 10 μM L-methionine
Procedure: To enhance expression and labelling of endogenous AMD1, HEK293T cells were treated with difluoromethylornithine (DFMO; purchased from Santa Cruz Biotechnology) (5 mM) for 48 h in RPMI 1640 media (Fisher Scientific, A14517-01) containing 10 μM L-methionine. Cells were washed and treated with probe 1 in the absence of methionine. […] Probe 1-labelling, proteome preparation, fluorophore conjugation, gel-based analysis and western blotting were performed as described above in Examples 2 and 3. Band intensities were quantified using ImageJ software^75. […] Briefly, about 0.5 mg soluble proteomes isolated from probe 1-labelled AMD1-transfected cells grown in low versus high methionine were each diluted to 1 mL with 50 mM Na-HEPES buffer (pH 7.5) supplemented with 500 mM NaCl and 1% Triton X-100. Each proteome was incubated overnight at 4° C. by rotation with a pre-equilibrated slurry (25 μL resin (CV), anti-FLAG M2 affinity gel, Sigma). The resin was washed by resuspension and centrifugation with the same buffer supplemented with 500 mM NaCl (5×1 mL) followed by 100 mM NaCl (2×1 mL). The bound AMD1 protein was eluted in 100 μL of low salt buffer containing […] (FLAG)3 peptide [DYKDHD-(G)-DYKDHD-(I)-DYKD4K] (SEQ ID NO: 47). To prevent contamination from the excess (FLAG)3 peptide in the elution, the protein was purified by gel. […]

## difluoromethylornithine [DFMO]
AMD1 [1]
  effect on expression of AMD1: increase the expression of AMD1
AMD1 [2]
  change in endogenous active AMD1 detected by probe 1: DMFO-induced changes in the endogenous concentration of active AMD1

From patent US11226337B2, “Chemoproteomic profiling of protein electrophilic and oxidative post-translational modifications” (Zenagem, LLC, priority 2017, dated 2022)
